5 compounds from ChEMBL document CHEMBL1123898, “Antitumor imidazotetrazines. 14. Synthesis and antitumor activity of 6- and 8-substituted imidazo[5,1-d]-1,2,3,5-tetrazinones and 8-substituted pyrazolo[5,1-d]-1,2,3,5-tetrazinones” (1987) can be followed below.

Holding throughout (assay type): functional
Assay [1] relates to L1210. Put plainly: Antitumor activity was assessed against L1210 tumors in B6D2F1 mouse by inoculation of 10e5 tumor cells through intravenous route and mean death of animals (treated/control) was reported at 40 mg/kg peroral dose. The conditions noted are these: route oral.
The subject of assay [2] is L1210. Put plainly: Antitumor activity was assessed against L1210 tumors in B6D2F1 mouse by inoculation of 10e5 tumor cells through intravenous route and mean death of animals (treated/control) was reported at 20 mg/kg peroral dose. The following applies: route oral.
The test system of assay [3] is L1210. As to the kind of experiment: Antitumor activity was assessed against L1210 tumors in B6D2F1 mouse by inoculation of 10e5 tumor cells through intravenous route and mean death of animals (treated/control) was reported at 10 mg/kg peroral dose. The conditions noted are these: route oral.
Assay [4] has as its system L1210. Put plainly: (§1) Antitumor activity was assessed against L1210 tumors in B6D2F1 mouse by inoculation of 10e5 tumor cells through intravenous route and mean death of animals (treated/control) was reported at 50 mg/kg peroral dose. The following applies: route oral.
A short description of assay [5]: Antitumor activity was assessed against TLX5 tumors in CBA/CA mouse by inoculation of 2 x 10e5 tumor cells through sc route and number of Survivors to duration was reported at 20 mg/kg ip dose; 1/5. The conditions noted are these: route subcutaneous.
The nature of assay [6]: Antitumor activity was assessed against TLX5 tumors in CBA/CA mouse by inoculation of 2 x 10e5 tumor cells through subcutaneous route and mean death of animals (treated/control) was reported at 20 mg/kg dose.
Assay [7] can be described thus: Antitumor activity was assessed against TLX5 tumors in CBA/CA mouse by inoculation of 2 x 10e5 tumor cells through subcutaneous route and mean death of animals (treated/control) was reported at 80 mg/kg dose.
The subject of assay [8] is L1210. Put plainly: Antitumor activity was assessed against L1210 tumors in B6D2F1 mouse by inoculation of 10e5 tumor cells through iv route and number of Survivors to duration was reported at 40 mg/kg peroral dose; 2/7. The following applies: route oral.
The nature of assay [9]: Antitumor activity was assessed against TLX5 tumors in CBA/CA mouse by inoculation of 2 x 10e5 tumor cells through subcutaneous route and mean death of animals (treated/control) was reported at 40 mg/kg dose.
A short description of assay [10]: Antitumor activity was assessed against TLX5 tumors in CBA/CA mouse by inoculation of 2 x 10e5 tumor cells through subcutaneous route and mean death of animals (treated/control) was reported at 320 mg/kg dose.
The nature of assay [11]: Antitumor activity was assessed against TLX5 tumors in CBA/CA mouse by inoculation of 2 x 10e5 tumor cells through subcutaneous route and mean death of animals (treated/control) was reported at 160 mg/kg dose.
The nature of assay [12]: as §1. The following applies: route oral.
Assay [13] is described as follows: Antitumor activity was assessed against L1210 tumors in B6D2F1 mouse by inoculation of 10e5 tumor cells through intravenous route and mean death of animals (treated/control) was reported at 200 mg/kg peroral dose. The conditions noted are these: route oral.
The nature of assay [14]: Antitumor activity was assessed against L1210 tumors in B6D2F1 mouse by inoculation of 10e5 tumor cells through intravenous route and mean death of animals (treated/control) was reported at 100 mg/kg peroral dose. The following applies: route oral.
Assay [15] is described as follows: Antitumor activity was assessed against TLX5 tumors in CBA/CA mouse by inoculation of 2 x 10e5 tumor cells through subcutaneous route and number of Survivors to duration was reported at 40 mg/kg ip dose; 1/5.
Assay [16] has as its system L1210. As to the kind of experiment: Antitumor activity was assessed against L1210 tumors in B6D2F1 mouse by inoculation of 10e5 tumor cells through intravenous route and number of Survivors to duration was reported at 20 mg/kg peroral dose; 6/7. The conditions noted are these: route oral.
Assay [17] is described as follows: Antitumor activity was assessed against TLX5 tumors in CBA/CA mouse by inoculation of 2 x 10e5 tumor cells through subcutaneous route and number of Survivors to duration was reported at 20 mg/kg ip dose; 3/5.
Assay [18] is described as follows: Antitumor activity was assessed against TLX5 tumors in CBA/CA mouse by inoculation of 2 x 10e5 tumor cells through subcutaneous route and mean death of animals (treated/control) was reported at 40 mg/kg ip dose.
Assay [19] deals with L1210. Put plainly: Antitumor activity was assessed against L1210 tumors in B6D2F1 mouse by inoculation of 10e5 tumor cells through intravenous route and mean death of animals (treated/control) was reported at 5 mg/kg peroral dose. The following applies: route oral.
Assay [20] is described as follows: Antitumor activity was assessed against TLX5 tumors in CBA/CA mouse by inoculation of 2 x 10e5 tumor cells through subcutaneous route and number of Survivors to duration was reported at 40 mg/kg ip dose; 4/5.
The nature of assay [21]: Antitumor activity was assessed against TLX5 tumors in CBA/CA mouse by inoculation of 2 x 10e5 tumor cells through subcutaneous route and mean death of animals (treated/control) was reported at 10 mg/kg ip dose.
Assay [22] is described as follows: Antitumor activity was assessed against TLX5 tumors in CBA/CA mouse by inoculation of 2 x 10e5 tumor cells through subcutaneous route and mean death of animals (treated/control) was reported at 5 mg/kg ip dose.
Assay [23] in a line: Antitumor activity was assessed against TLX5 tumors in CBA/CA mouse by inoculation of 2 x 10e5 tumor cells through subcutaneous route and mean death of animals (treated/control) was reported at 20 mg/kg ip dose.
The test system of assay [24] is L1210. As to the kind of experiment: Antitumor activity was assessed against L1210 tumors in B6D2F1 mouse by inoculation of 10e5 tumor cells through intravenous route and number of Survivors to duration was reported at 40 mg/kg peroral dose; 1/7. The following applies: route oral.

Consider `CS(=O)(=O)c1ncn2c(=O)n(CCCl)nnc12`, for which the T/C is more than 310% in assay [1]; 257% in assay [2]; 217% in assay [3]; 217% in [4]; more than 214% in assay [6]; 66% in [7]. In assay [9], this compound registered a T/C of 66%. Besides, the results for the Survivors in [5] and in assay [8] were 1 and 2, respectively.

On to `O=C(Nc1ccccc1)c1ncn2c(=O)n(CCCl)nnc12`, for which the T/C in assay [10] was found to be 98%; in [11], 98%; in [6] it was 98%; in assay [7], 100%; in [9], 103%.

As for `NC(=O)c1nc(CCc2ccccc2)n2c(=O)n(CCCl)nnc12`, the T/C in [12], in assay [13] and in assay [14] was 100% in each case.

Regarding `CNS(=O)(=O)c1ncn2c(=O)n(CCCl)nnc12`, the results for the Survivors in [15], in [16] and in assay [17] were 1, 6 and 3, respectively. Besides, the T/C in [1] is 25%; in assay [2] it was more than 666%; in [3], 283%; in assay [6] it was more than 375%; in assay [7], 68%; in assay [9], more than 203%.

For `NC(=O)c1ncn2c(=O)n(CCCl)nnc12` [MITOZOLOMIDE], the T/C is listed as more than 458% in [18]; 133% in assay [19]; more than 330% in [1]; 217% in assay [2]; 178% in assay [3]; 163% in assay [21]. Further, the T/C in [22] came to 113%; in assay [23] it was 167%. In addition, the Survivors in assay [20] was determined as 4; in [24], 1.

What is called T/C is the result in the treated group divided by that in the control group, in per cent.
